ChEMBL document CHEMBL5360532, “Current scenario of quinolone hybrids with potential antibacterial activity against ESKAPE pathogens” (Eur J Med Chem, 2023)
Converted amounts (≈) assume the structure as drawn.

Legend:
Staphylococcus aureus [1] = assay: Antibacterial activity against methicillin resistant Staphylococcus aureus clinical isolate 18-2 assessed as bacterial growth inhibition measured after 18 to 20 hrs by broth microdilution assay; assay type: functional; settings: time 18-20 hrs
Staphylococcus aureus [2] = assay: Antibacterial activity against clinical isolate methicillin resistant Staphylococcus aureus ATCC 33591 assessed as bacterial growth inhibition measured after 18 to 20 hrs by broth microdilution assay; assay type: functional; settings: time 18-20 hrs
Staphylococcus aureus [3] = assay: Antibacterial activity against clinical isolate methicillin sensitive Staphylococcus aureus ATCC 29213 assessed as bacterial growth inhibition measured after 18 to 20 hrs by broth microdilution assay; assay type: functional; settings: time 18-20 hrs
Staphylococcus aureus [4] = assay: Antibacterial activity against methicillin sensitive Staphylococcus aureus clinical isolate 18-3 assessed as bacterial growth inhibition measured after 18 to 20 hrs by broth microdilution assay; assay type: functional; settings: time 18-20 hrs
[5] = Microsomal stability in mouse plasma assessed as half life measured upto 60 mins in presence of NADPH by HPLC analysis; assay type: ADME, cell-free
Staphylococcus aureus [6] = assay: Antibacterial activity against clinical isolate vancomycin intermediate resistant Staphylococcus aureus ATCC 700699 assessed as bacterial growth inhibition measured after 18 to 20 hrs by broth microdilution assay; assay type: functional; settings: time 18-20 hrs
Staphylococcus aureus [7] = assay: Antibacterial activity against clinical isolate vancomycin intermediate resistant Staphylococcus aureus HIP 5827 assessed as bacterial growth inhibition measured after 18 to 20 hrs by broth microdilution assay; assay type: functional; settings: time 18-20 hrs
[8] = Microsomal stability in mouse liver microsomes assessed as half life measured upto 60 mins in presence of NADPH by HPLC analysis; assay type: ADME, Microsome
Staphylococcus aureus [9] = assay: Antibacterial activity against methicillin sensitive Staphylococcus aureus clinical isolate 15 assessed as bacterial growth inhibition measured after 18 to 20 hrs by broth microdilution assay; assay type: functional; settings: time 18-20 hrs
Staphylococcus aureus [10] = assay: Antibacterial activity against clinical isolate methicillin sensitive Staphylococcus aureus BAA 976 assessed as bacterial growth inhibition measured after 18 to 20 hrs by broth microdilution assay; assay type: functional; settings: time 18-20 hrs
Staphylococcus aureus [11] = assay: Antibacterial activity against clinical isolate vancomycin intermediate resistant Staphylococcus aureus HIP 5836 assessed as bacterial growth inhibition measured after 18 to 20 hrs by broth microdilution assay; assay type: functional; settings: time 18-20 hrs
Staphylococcus aureus [12] = assay: Antibacterial activity against clinical isolate methicillin sensitive Staphylococcus aureus BAA 1708 assessed as bacterial growth inhibition measured after 18 to 20 hrs by broth microdilution assay; assay type: functional; settings: time 18-20 hrs
Staphylococcus aureus [13] = assay: Antibacterial activity against clinical isolate methicillin resistant Staphylococcus aureus ATCC 43300 assessed as bacterial growth inhibition measured after 18 to 20 hrs by broth microdilution assay; assay type: functional; settings: time 18-20 hrs
Pseudomonas aeruginosa = assay: Antibacterial activity against imipenem resistant Pseudomonas aeruginosa VIM-2 assessed as bacterial growth inhibition measured after 24 hrs by agar dilution assay; assay type: functional
Enterobacter cloacae = assay: Antibacterial activity against fosfomycin resistant Enterobacter cloacae assessed as bacterial growth inhibition measured after 24 hrs by agar dilution assay; assay type: functional
Escherichia coli = assay: Antibacterial activity against Escherichia coli ATCC 25922 assessed as bacterial growth inhibition measured after 24 hrs by agar dilution assay; assay type: functional
Staphylococcus aureus [14] = assay: Antibacterial activity against Staphylococcus aureus ATCC 25923 assessed as bacterial growth inhibition measured after 24 hrs by agar dilution assay; assay type: functional

Row | Compound | MIC (Staphylococcus aureus [1]) | MIC (Staphylococcus aureus [2]) | MIC (Staphylococcus aureus [3]) | MIC (Staphylococcus aureus [4]) | half-life [5] | MIC (Staphylococcus aureus [6]) | MIC (Staphylococcus aureus [7]) | half-life [8] | MIC (Staphylococcus aureus [9]) | MIC (Staphylococcus aureus [10]) | MIC (Staphylococcus aureus [11]) | MIC (Staphylococcus aureus [12]) | MIC (Staphylococcus aureus [13]) | MIC (Pseudomonas aeruginosa) | MIC (Enterobacter cloacae) | MIC (Escherichia coli) | MIC (Staphylococcus aureus [14])
1 | CCCCCc1nc2ccccc2c(=O)n1NC(=O)c1c(O)c2ccccc2n(CC)c1=O | 4 µg/mL (≈ 8.96 µM) | 4 µg/mL (≈ 8.96 µM) | 4 µg/mL (≈ 8.96 µM) | 4 µg/mL (≈ 8.96 µM) | 24.5 min | 4 µg/mL (≈ 8.96 µM) | 4 µg/mL (≈ 8.96 µM) | > 373 min | 4 µg/mL (≈ 8.96 µM) | 4 µg/mL (≈ 8.96 µM) | 4 µg/mL (≈ 8.96 µM) | 4 µg/mL (≈ 8.96 µM) | 4 µg/mL (≈ 8.96 µM) |  |  |  | 
2 | CCOP(=O)(OCC)C(Nc1ncc(-c2cc3ccccc3oc2=O)s1)c1cc2ccccc2[nH]c1=O (configuration not stated) |  |  |  |  |  |  |  |  |  |  |  |  |  | 0.25 µg/mL (≈ 0.465 µM) | 0.25 µg/mL (≈ 0.465 µM) | 0.25 µg/mL (≈ 0.465 µM) | 0.25 µg/mL (≈ 0.465 µM)
